{
  "source": "paper PMC4018175",
  "about": "(Journal of Medicinal Chemistry, 2014)",
  "key": {"P2Y6R [1]": {"target": "T1, P2Y6R (Homo sapiens, UniProt Q15077)", "T1 sequence (Q15077 whole entry)": "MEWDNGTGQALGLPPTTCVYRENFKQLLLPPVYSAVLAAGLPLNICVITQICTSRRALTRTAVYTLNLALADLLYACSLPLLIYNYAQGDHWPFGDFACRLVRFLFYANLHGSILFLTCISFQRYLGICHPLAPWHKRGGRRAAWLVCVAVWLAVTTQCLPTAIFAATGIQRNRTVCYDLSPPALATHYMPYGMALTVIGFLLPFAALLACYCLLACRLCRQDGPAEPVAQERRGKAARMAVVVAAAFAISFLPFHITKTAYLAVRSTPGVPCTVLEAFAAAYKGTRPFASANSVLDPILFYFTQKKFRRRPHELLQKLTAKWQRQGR", "assay": "Fluorescent ligand binding of 28 by flow cytometry", "details": "100 nM for 30 min at 37 °C in the presence of 125 (100 μM)"}, "P2Y6R [2]": {"target": "T1, P2Y6R", "assay": "Fluorescence microscopy of P2Y6R-expressing 1321N1 astrocytoma cells", "type": "cell-based", "details": "1 μM, 30 min at 37 °C, in presence and absence of 118 (10 μM)"}},
  "note": "Structures can show the parent of a compound that is named as a salt.",
  "data": [
    {"smiles": "O=C(CCCCCNC(=O)COc1ccc(/C=C/c2ccc3n2[B-](F)(F)[N+]2=C(c4cccs4)C=CC2=C3)cc1)NCCCn1cc(CCNC(=O)COc2ccc(CCCO/N=c3/ccn([C@@H]4O[C@H](COP(=O)(O)OP(=O)(O)OP(=O)(O)O)[C@@H](O)[C@H]4O)c(=O)[nH]3)cc2)nn1", "note": "[Compound 28, N^4-(3-((4-O-CH2CONH-(CH2)2(BODIPY-1H-1,2,3-Triazol-4-yl))phenyl)propyloxy)cytidine-5′-triphosphate Triethylammonium Salt]", "values": [
      {"measurement": "Cell labeling by fluorescent ligand (FCM)", "setting": "P2Y6R [1]", "value": "significant cell labeling"},
      {"measurement": "Labeling of cells expressing the receptor (fluorescence microscopy)", "setting": "P2Y6R [2]", "value": "specifically labeled cells expressing the receptor"}
    ]}
  ]
}
